Assay results published in patent US9290764B2, “RNAi for the control of insects and arachnids” (Devgen NV, priority 2005, dated 2016).

B1: Bg001 concatemer 2: dsRNA concatemer, five times repeat of a 50 bp Bg001 fragment (SEQ ID NO 66) (nucleic acid)
DNA: CTTGGGTCGTGTTGGAACTGTAGTTAATCGAGAACGTCATCCTGGTTCCTCTTGGGTCGTGTTGGAACTGTAGTTAATCGAGAACGTCATCCTGGTTCCTCTTGGGTCGTGTTGGAACTGTAGTTAATCGAGAACGTCATCCTGGTTCCTCTTGGGTCGTGTTGGAACTGTAGTTAATCGAGAACGTCATCCTGGTTCCTCTTGGGTCGTGTTGGAACTGTAGTTAATCGAGAACGTCATCCTGGTTCCT
modifications: Concatemer

Tested on: German cockroach, Blattella germanica
Test: Cockroach laboratory trial of Bg001 dsRNA and Bg001 concatemer 2 (mortality and moulting to adult)
Format: in vivo
Conditions: for number of cockroaches successfully moulting to the adult stage, as a percentage of live insects (means±standard errors, n=4): pellets 1% w/w
Description: Table 3: Effect of dsRNA treatments on the number of cockroaches successfully moulting to the adult stage, as a percentage of live insects (means±standard errors, n=4)
FIG. 2: Mortality of B. germanica on artificial pellet diet. The concentration of dsRNA (Bg001, having the sequence as represented as SEQ ID NO 9, and Bg001 concatemer 2, having the sequence as represented as SEQ ID NO 68) in the pellets was 1% w/w. In this experiment, hexaflumuron (1% w/w) was tested as a positive control and solvent as a negative control.
Stock solutions of 1-10 μg/μl dsRNA in distilled water were prepared. Each dsRNA solution was diluted to the appropriate concentration and mixed with finely ground laboratory diet (Rat and mouse standard diet, B&K Universal Ltd, Hull, UK), which was previously heat treated in order to inactivate any enzymes. The mixture or formulation was formed into small pellets of equal weight (0.3 g) to achieve an end concentration of 0.1% to 2% w/w dsRNA and dried overnight at room temperature.
Newly hatched nymphs from the German cockroach, B. germanica were housed per 10 in plastic lidded containers (29±2° C., minimum 40% relative humidity, with a 12:12 light:dark photoperiod). Animals were starved 24 hours prior to exposure to the pellets. The cockroaches were assessed as live, moribund or dead twice a week until adulthood. The pellet was replaced with freshly prepared pellet once a week. dsRNA containing pellets, formulations, were compared with a negative control (solvent) and a positive control (1 or 2% imidacloprid, commonly used in commercially available cockroach baits).
Concatemers were designed for each target gene. Concatemers are synthetic tandem repeats of 50 to 100 bp dsfragments. In the present example, concatemers were designed by selecting the best possible fragments in regions with homology in protein family as well as at nucleotide level, in regions containing the best predicted siRNAs and in regions with between 40 and 60% GC content, preferably about 50% GC content, if possible.
For Bg001 two concatemers were designed consisting of a five times repeat of a 50 bp fragment, ie represented by SEQ ID NO 65 and 66, resulting in Bg001 concatemer 1 and Bg001 concatemer 2, herein represented respectively as SEQ ID NO 67 and SEQ ID NO 68, and one concatemer was designed consisting of a three times repeat of a 100 bp repeat, ie represented by SEQ ID NO 69, resulting in Bg001 concatemer 3, herein represented as SEQ ID NO 70. XbaI and SmaI flanking sites were added for cloning in a vector to produce dsRNA. These dsRNA constructs comprising the concatemers were tested in the cockroach laboratory trials.
For example at day 48, from the surviving cockroaches treated with Bg001 only 33.3 moulted to the adult stage whereas none of the cockroaches treated with Bg001 concatemer 2 did within this time as shown in Table 3.

Row | Molecule | number of cockroaches successfully moulting to the adult stage, as a percentage of live insects (means±standard errors, n=4) (Day 38) | number of cockroaches successfully moulting to the adult stage, as a percentage of live insects (means±standard errors, n=4) (Day 41) | number of cockroaches successfully moulting to the adult stage, as a percentage of live insects (means±standard errors, n=4) (Day 45) | number of cockroaches successfully moulting to the adult stage, as a percentage of live insects (means±standard errors, n=4) (Day 48) | number of cockroaches successfully moulting to the adult stage, as a percentage of live insects (means±standard errors, n=4) (Day 52) | mortality compared to the negative control (solvent) (artificial pellet diet, dsRNA 1% w/w (FIG. 2))
1 | O=C(NC(=O)c1c(F)cccc1F)Nc1cc(Cl)c(OC(F)(F)C(F)F)c(Cl)c1 [Positive control, hexaflumuron] | 0.0 (±0.0) % | 0.0 (±0.0) % | 0.0 (±0.0) % | 0.0 (±0.0) % | 0.0 (±0.0) % | –
2 | B1 | 0.0 (±0.0) % | 0.0 (±0.0) % | 0.0 (±0.0) % | – | 0.0 (±0.0) % | significant higher
